In patent publication US20140329903A1, “TREATMENT OF NEURODEGENERATIVE DISEASES” (ACADIA PHARMACEUTICALS INC., priority 2011, published 2014):
“Also recorded” adds a separate entry of the source.

Assays:
[1] = tested on: 6-hydroxydopamine (6OHDA) lesions of the substantia nigra pars compacta (SNc); assay: 6OHDA lesion of the SNc, bexarotene s.c. continuous infusion after lesion; type: in vivo, rats; conditions: for Effective in rat PD model?: 6OHDA lesioning of the substantia nigra
Experimental: The endpoints assessed were: • Neuroprotection measured by tyrosine hydroxylase (TH) and ret-c (co-receptor for the trophic factor GDNF) staining in the substantia nigra (SNc). • Behavioral assessments including rotorod, challenging beam, and spontaneous locomotion
Following the 28 days of treatment, animals were assessed in 3 tests of coordinated motor function (spontaneous locomotion, rotorod and challenging beam) and then tissue was collected to assess tyrosine hydroxylase and Ret-c immunofluorescence in the substantia nigra.
The Subjects and Surgical Procedures to Produce Lesions were as Described Above for i.c.v. Dosing.
They were then incubated in 0.9% physiological saline at 37° C. until surgically implanted. The pumps infused at a rate of […] for 28 days after implantation. […] After completion of the experiment, a subset of the osmotic pumps was removed. The pumps were weighed and aspirated in order to verify compound delivery.
(§1) Spontaneous Locomotion, rotorod, and challenging beam tests were conducted as described above for i.c.v. dosing.
Tyrosine Hydroxylase Fluorescent Immunohistochemistry was conducted as described above for i.c.v. dosing. Ret-c immunohistochemistry was conducted using brains fixed and SNc tissue sectioned as described above. […] Ret-c sections were then mounted on and imaged as described above for immunohistochemistry performed on TH.

RARE & Nurr1 = assay: Reporter gene transcription assay pRARE & Nurr1; type: cell-based
Source text: We have enabled assays to detect ligand-induced gene transcription (reporter gene assays) in order to confirm results obtained in BRET2 assays.

[2] = tested on: 6-hydroxydopamine (6OHDA) lesions of the substantia nigra pars compacta (SNc); assay: 6OHDA lesion of the SNc, bexarotene once daily orally after lesion; type: in vivo, rats
Experimental: . The endpoints assessed were: • Neuroprotection measured by tyrosine hydroxylase (TH) staining in the substantia nigra (SNc). • Behavioral assessments including rotorod, challenging beam, and spontaneous locomotion
. Following the 28 days of treatment, animals were assessed in 3 tests of coordinated motor function (spontaneous locomotion, rotorod and challenging beam) and then tissue was collected to assess tyrosine hydroxylase immunofluorescence in the substantia nigra. […].
The subjects and surgical procedures to produce lesions were as described above for i.c.v. dosing.
as §1
Novel object recognition (NOR) was conducted in a novel environment in two phases: sample and test. Subjects were placed into the NOR chamber, where two identical objects were placed. Each rat was allowed to explore for 3 min., and the time spent exploring at each position recorded. After 3 min., each rat was removed from the arena and placed back into its cage. The test phase was conducted 4 hours after the sample phase. During test, one familiar object (seen during sample) and one novel object was placed into the chamber, and each rat was allowed 3 min to explore. The test sessions were recorded on video and scored by an observer blind to each subject's treatment condition. For test data, % of exploration time spent at the novel object was determined and headtwitch assays.
Spontaneous Head Twitch: Subjects were place in a group of 4 animals into a clean holding tub, where they were closely observed for 8 min.
Tyrosine Hydroxylase Fluorescent Immunohistochemisty was conducted as described above for i.c.v. dosing.

[3] = human, plasma, po
[4] = tested on: rat primary dopaminergic neurons; assay: Restorative effect after MPP+ injury in primary mesencephalic cultures; type: cell-based
Experimental: BDNF was used as a positive control in this study.
Rat dopaminergic neurons were cultured as described by Schinelli et al., 1988. Briefly pregnant female rats of 15 days gestation were killed by cervical dislocation (Rats Wistar; Janvier) and the foetuses removed from the uterus. The embryonic midbrains were removed and placed in ice-cold medium of Leibovitz (L15; PAN) containing 2% of Penicillin-Streptomycin (PS; Invitrogen) and 1% of bovine serum albumin (BSA; PAN). Only the ventral portions of the mesencephalic flexure were used for the cell preparations as this is the region of the developing brain rich in dopaminergic neurons. The midbrains were dissociated by trypsinisation for 20 min at 37° C. (Trypsin EDTA 1×; PAN) diluted in PBS without calcium and magnesium. The reaction was stopped by the addition of Dulbecco's modified Eagle's medium (DMEM; PAN) containing DNAase I grade II (0.5 mg/ml; PAN) and 10% of fetal calf serum (FCS; Gibco). Cells were then mechanically dissociated by 3 passages through a 10 ml pipette. Cells were then centrifuged at 180×g for 10 min at +4° C. on a layer of BSA (3.5%) in L15 medium. The supernatant was discarded and the cells of pellet were re-suspended in a defined culture medium consisting of Neurobasal (Gibco) supplemented with B27 (2%; Gibco), L-glutamine (0.2 mM; Invitrogen) 2% of PS solution and 10 ng/ml BDNF (PAN) and 1 ng/ml GDNF. (PAN) Viable cells were counted in a Neubauer cytometer using the trypan blue exclusion test. The cells were seeded at a density of 40000 cells/well in 96 well-plates (wells were pre-coated with poly-L-lysine (greiner) and were cultured at 37° C. in a humidified air (95%)/CO2 (5%) atmosphere. Half of the medium was changed every 2 days with fresh medium.
Briefly, on day 6 of culture, the medium was removed and fresh medium was added, without or with MPP+ at 4 μM. […] In all wells, the final concentrations were in 0.1% DMSO. After permeabilization with 0.1% saponin (Sigma), cells were incubated with mouse monoclonal primary against tyrosine hydroxylase antibody (TH, Sigma) to stain specifically dopaminergic neurons. […] The number of TH neurons and total neurite of TH neurons were measured in each well.
For each condition, 2×10 pictures per well were taken in the same condition using InCell Analyzer™ 1000 (GE Healthcare) with 10× magnification. The analyses were automatically done using developer software (GE Healthcare) to measure the total number of TH positive neurons. Two means of 10 pictures were automatically performed by well. Data were expressed in percentage of control condition. […]
For each condition, 10 pictures per well were taken in the same condition using InCell Analyzer™ 1000 (GE Healthcare) with 10× magnification. […] 6 wells per conditions were analyzed. […]

In the case of `C=C(c1ccc(C(=O)O)cc1)c1cc2c(cc1C)C(C)(C)CCC2(C)C` [Bexarotene, bexarotene], the “Ret-c in the SNc (cell counts, percent immunopositive image, mean pixel intensity)” value ([1]; 1 mg/kg/day s.c. beginning 72 hours after 6OHDA lesion, vs vehicle) is reported as “significantly improved”, the “tyrosine hydroxylase immunofluorescence in the SNc” value ([1]; 1, 0.25, 0.0625 and 0.021 mg/kg/day s.c. beginning 72 hours after 6OHDA lesion, vs vehicle) is reported as “significantly improved; also recorded: improved tyrosine hydroxylase and Ret-c expression” and the “motor performance (challenging beam, rotorod, spontaneous locomotion) after 6OHDA” value ([1]; 1, 0.25, 0.0625 and 0.021 mg/kg/day s.c. for 28 days beginning 72 hours after lesion) is reported as “not impaired relative to Sham controls; also recorded: reversed behavioral deficits”. For the same compound, the “Effective in rat PD model?” value ([1]; s.c. 0.06 mg/kg/day) was “No”, the “Effective in rat PD model?” value ([1]; s.c. 0.25 mg/kg/day, 0.25 mg/kg/day) was “effectively reversed behavioral deficits and regenerated neurons and Yes” and the “Effective in rat PD model?” value ([1]; s.c. 1 mg/kg/day) was “Yes”. For the same compound, the “Effective PD dose (rat), s.c.” value ([1]; s.c. continuous infusion, 6OHDA lesion model, listed as Targretin) was 0.25 mg/kg/day, the EC50 (RARE & Nurr1) was 26 nM and the Eff % (RARE & Nurr1; pRARE & Nurr1, normalized to 9-cis retinoic acid) was 23%. For the same compound, the “improvement of TH measures in the SNc” value ([2]; 0.3 mg/kg/day orally for 28 days beginning 3 days after lesion) was “not”, the “normalization of behavior disrupted by lesion” value ([2]; 0.3 mg/kg/day orally for 28 days beginning 3 days post-lesion) was “not” and the “TH positive cells, mean pixel intensity, % immunopositive, colocalization of TH and Neurotrace in the SNc” value ([2]; 1 or 3 mg/kg/day orally for 28 days beginning 3 days after lesion, vs vehicle) was “significantly improved; also recorded: improved tyrosine hydroxylase expression”. The “behavior disrupted by lesion (challenging beam, rotorod, novel object recognition, head twitches)” value ([2]; 1 or 3 mg/kg/day orally for 28 days beginning 3 days post-lesion) was “normalized behavior disrupted by lesion; also recorded: reversed behavioral deficits”, the “Effective PD dose (rat), p.o.” value ([2]; once daily p.o., 6OHDA lesion model, listed as Targretin) was 1 mg/kg/day and the “Effective in rat PD model?” value ([2]; p.o. 1 mg/kg/day, 6OHDA lesioning of the substantia nigra, 1 mg/kg/day) was “effectively reversed behavioral deficits and regenerated neurons and Yes”. For the same compound, the AUC [3] was 0.7 to 1.3 µM·h, the “neurotrophic effect compared with BDNF” value ([4]; 300 nM, after 24 h MPP+ 4 μM) was “as high as the one of BDNF” and the “length of TH neurite” value ([4]; 100 and 300 nM, after 24 h MPP+ 4 μM) was “significant effect”. For the same compound, the “total number of TH neurons” value ([4]; all tested concentrations (0.3-300 nM), 48 h, applied after 24 h MPP+ 4 μM) was “increase”.
